The subject of the experiment is B6C3F1 mice, ip Sarcoma M5076, median survival T/C. Kind of experiment: NCI In Vivo Anticancer Drug Screen. Data for tumor model Sarcoma M5076 (intraperitoneal) in B6C3F1 mice. The conditions noted are these: endpoint: median survival time, higher = longer survival. The essentials: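 Mice carrying the transplanted tumour received compound treatment. Survival was recorded, and each value is the treated-group measurement divided by that of the vehicle-dosed control group.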

[1] abbreviates: dose: 100.0 mg/kg/injection, schedule: Q04DX004 (ip), vehicle: Klucel (hydroxypropylcellulose) (HPC).
Setting [2] is: dose: 200.0 mg/kg/injection, schedule: Q04DX004 (ip), vehicle: Klucel (hydroxypropylcellulose) (HPC).
Where [3] appears, read: dose: 400.0 mg/kg/injection, schedule: Q04DX004 (ip), vehicle: Klucel (hydroxypropylcellulose) (HPC).
[4] abbreviates: dose: 12.5 mg/kg/injection, schedule: Q04DX004 (ip), vehicle: saline.
The mark [5] stands for this setting: dose: 25.0 mg/kg/injection, schedule: Q04DX004 (ip), vehicle: saline.
Where [6] appears, read: dose: 50.0 mg/kg/injection, schedule: Q04DX004 (ip), vehicle: saline.
[7] abbreviates: dose: 100.0 mg/kg/injection, schedule: Q04DX004 (ip), vehicle: saline.
Setting [8] is: dose: 50.0 mg/kg/injection, schedule: Q04DX004 (ip), vehicle: Klucel (hydroxypropylcellulose) (HPC).
The mark [9] stands for this setting: dose: 50.0 mg/kg/injection, schedule: Q04DX004 (ip), vehicle: saline with Tween-80.
The mark [10] stands for this setting: dose: 100.0 mg/kg/injection, schedule: Q04DX004 (ip), vehicle: saline with Tween-80.
The mark [11] stands for this setting: dose: 200.0 mg/kg/injection, schedule: Q04DX004 (ip), vehicle: saline with Tween-80.
The mark [12] stands for this setting: dose: 400.0 mg/kg/injection, schedule: Q04DX004 (ip), vehicle: saline with Tween-80.
The mark [13] stands for this setting: dose: 25.0 mg/kg/injection, schedule: Q04DX004 (ip), vehicle: Klucel (hydroxypropylcellulose) (HPC).

Structures are written as SMILES. Several values for one entry are separate records, joined by “and”; a condition that tells them apart may be missing. Identical values can stand only once. Toxic doses and inconclusive results are not listed.

Regarding `CN=C(N)c1ccc(N=C(N)c2ccc(C(N)=Nc3ccc(C(N)=NC)cc3)cc2)cc1`, the T/C was 110 % of control (dose: 3.75 mg/kg/injection, schedule: Q01DX005 (ip), vehicle: saline); 116 % of control (dose: 7.5 mg/kg/injection, schedule: Q01DX005 (ip), vehicle: saline); 88 % of control (dose: 7.5 mg/kg/injection, schedule: Q04DX004 (ip), vehicle: saline); 124 % of control (dose: 15.0 mg/kg/injection, schedule: Q01DX005 (ip), vehicle: saline); 98 % of control (dose: 15.0 mg/kg/injection, schedule: Q04DX004 (ip), vehicle: saline); 156 % of control (dose: 18.0 mg/kg/injection, schedule: Q01DX005 (ip), vehicle: saline). The T/C (dose: 30.0 mg/kg/injection, schedule: Q04DX004 (ip), vehicle: saline) was 109 % of control.
On to `O=C1[C@@H]2C3C=CC([C@H]4C(=O)N(CO)C(=O)[C@@H]34)[C@@H]2C(=O)N1CO`, for which the T/C is, setting by setting: under setting [1], 102 % of control; under setting [2], 102 % of control; under setting [3], 98 % of control.
For `CC(=O)OCCN1CCOC(O)(c2cccc(C(F)(F)F)c2)C1` (stereo not given), the T/C runs as follows: (dose: 11.25 mg/kg/injection, schedule: Q04DX004 (ip), vehicle: saline with Tween-80) 97 % of control; (dose: 22.5 mg/kg/injection, schedule: Q04DX004 (ip), vehicle: saline with Tween-80) 96 % of control; (dose: 45.0 mg/kg/injection, schedule: Q04DX004 (ip), vehicle: saline with Tween-80) 97 % of control; (dose: 90.0 mg/kg/injection, schedule: Q04DX004 (ip), vehicle: saline with Tween-80) 100 % of control; (dose: 180.0 mg/kg/injection, schedule: Q04DX004 (ip), vehicle: saline with Tween-80) 98 % of control.
As to `CCN(Cc1ccc(Cl)c(Cl)c1)c1ccc2nc(N)nc(N)c2c1C`, the T/C is 107 % of control (dose: 6.25 mg/kg/injection, schedule: Q04DX004 (ip), vehicle: saline); 107 % of control and 122 % of control under setting [4]; 118 % of control (2×) and 123 % of control under setting [5]; 110 % of control under setting [6].
Regarding `Cn1c2ccccc2c2oc(CO)cc(=O)c21`, the T/C is 92 % of control (dose: 37.5 mg/kg/injection, schedule: Q04DX004 (ip), vehicle: Klucel (hydroxypropylcellulose) (HPC)); 91 % of control (dose: 75.0 mg/kg/injection, schedule: Q04DX004 (ip), vehicle: Klucel (hydroxypropylcellulose) (HPC)); 91 % of control (dose: 150.0 mg/kg/injection, schedule: Q04DX004 (ip), vehicle: Klucel (hydroxypropylcellulose) (HPC)); 87 % of control (dose: 300.0 mg/kg/injection, schedule: Q04DX004 (ip), vehicle: Klucel (hydroxypropylcellulose) (HPC)); 91 % of control (dose: 600.0 mg/kg/injection, schedule: Q04DX004 (ip), vehicle: Klucel (hydroxypropylcellulose) (HPC)).
Consider `O=S(O)Cc1ccccc1CSSSCc1ccccc1CS(=O)O`, for which the T/C reads like this: under setting [6], 105 % of control; (dose: 50.0 mg/kg/injection, schedule: Q04DX004 (ip), vehicle: suspension in saline) 111 % of control; under setting [7], 103 % of control; (dose: 100.0 mg/kg/injection, schedule: Q04DX004 (ip), vehicle: suspension in saline) 95 % of control; (dose: 200.0 mg/kg/injection, schedule: Q04DX004 (ip), vehicle: saline) 94 % of control; (dose: 400.0 mg/kg/injection, schedule: Q04DX004 (ip), vehicle: saline) 99 % of control. The T/C is 91 % of control (dose: 400.0 mg/kg/injection, schedule: Q04DX004 (ip), vehicle: suspension in saline); 95 % of control (dose: 800.0 mg/kg/injection, schedule: Q04DX004 (ip), vehicle: saline); 91 % of control (dose: 800.0 mg/kg/injection, schedule: Q04DX004 (ip), vehicle: suspension in saline).
As to `O=C1C2C3C=CC(C2C(=O)N1CO)C1C2C(=O)N(CO)C(=O)C2C31` (stereo not given), the T/C by setting is: (dose: 12.5 mg/kg/injection, schedule: Q04DX004 (ip), vehicle: water) 103 % of control; (dose: 25.0 mg/kg/injection, schedule: Q04DX004 (ip), vehicle: water) 103 % of control; (dose: 50.0 mg/kg/injection, schedule: Q04DX004 (ip), vehicle: water) 98 % of control.
`Cc1c(O)c(O)c(C)c(CCN)c1O`: the T/C is 100 % of control (dose: 31.0 mg/kg/injection, schedule: Q04DX004 (ip), vehicle: saline with Tween-80); 104 % of control (dose: 62.0 mg/kg/injection, schedule: Q04DX004 (ip), vehicle: saline with Tween-80); 94 % of control (dose: 112.0 mg/kg/injection, schedule: Q04DX004 (ip), vehicle: saline with Tween-80).
On to `CCOc1ccc(N2C(=O)C(=O)C(C(C)=O)C2=O)cc1` (stereo not given), for which the T/C was 102 % of control under setting [8], 102 % of control under setting [1], 101 % of control under setting [2] and 100 % of control under setting [3].
On to `NC(=S)N/N=C/c1cc(=O)c2cc(Cl)ccc2o1`, for which the T/C (dose: 75.0 mg/kg/injection, schedule: Q04DX004 (ip), vehicle: DMSO) was 92 % of control.
On to `CC1=C(/C=C/C(C)=C/C=C/C(C)=C/C(=O)Nc2ccc(O)cc2)C(C)(C)CCC1`, for which the T/C runs as follows: (dose: 25.0 mg/kg/injection, schedule: Q04DX004 (ip), vehicle: saline with Tween-80) 97 % of control; under setting [9], 96 % of control; under setting [10], 105 % of control; under setting [11], 95 % of control; under setting [12], 97 % of control.
For the molecule `[Cl][Mn][Cl]`, the T/C was 96 % of control under setting [4], 100 % of control under setting [5], 124 % of control under setting [6] and 111 % of control under setting [7].
Consider `O=C(Nc1ccccc1)C1C(=O)C(=O)N(c2ccccc2)C1=O` (stereo not given), for which the T/C was 99 % of control under setting [13]; 90 % of control under setting [8]; 92 % of control under setting [1]; 95 % of control under setting [2]; 95 % of control under setting [3].
Consider `CC(C)(C)c1cc(C2C(C#N)C(=O)NC(=O)C2C#N)cc(C(C)(C)C)c1O` (stereo not given), for which the T/C by setting is: under setting [8], 88 % of control; under setting [1], 97 % of control; under setting [2], 93 % of control; under setting [3], 95 % of control; (dose: 800.0 mg/kg/injection, schedule: Q04DX004 (ip), vehicle: Klucel (hydroxypropylcellulose) (HPC)) 97 % of control.
Take `CCOC(=O)CC1(C)SCCN1C(=O)OCC` (stereo not given): the T/C under setting [9] is 114 % of control; the T/C under setting [10] is 114 % of control; the T/C under setting [11] is 122 % of control; the T/C under setting [12] is 103 % of control; the T/C (dose: 800.0 mg/kg/injection, schedule: Q04DX004 (ip), vehicle: saline with Tween-80) was 98 % of control.
As for `NC(=O)c1oc([N+](=O)[O-])c(-c2ccccc2)c1-c1ccccc1`, the T/C reads like this: (dose: 37.5 mg/kg/injection, schedule: Q04DX004 (ip), vehicle: saline with Tween-80) 98 % of control; (dose: 75.0 mg/kg/injection, schedule: Q04DX004 (ip), vehicle: saline with Tween-80) 93 % of control; (dose: 150.0 mg/kg/injection, schedule: Q04DX004 (ip), vehicle: saline with Tween-80) 94 % of control; (dose: 300.0 mg/kg/injection, schedule: Q04DX004 (ip), vehicle: saline with Tween-80) 89 % of control.
With `Nc1c(/C=C/c2cc3cc(C4=NCCN4)ccc3o2)[nH]c2cc(C3=NCCN3)ccc12`, the T/C is 107 % of control (dose: 6.25 mg/kg/injection, schedule: Q04DX004 (ip), vehicle: Klucel (hydroxypropylcellulose) (HPC)); 106 % of control (dose: 12.5 mg/kg/injection, schedule: Q04DX004 (ip), vehicle: Klucel (hydroxypropylcellulose) (HPC)); 104 % of control under setting [13].

The values above are taken from PubChem BioAssay AID292 (DTP/NCI, 2004).
